# From patent US6831080B2, “Cinnamide derivatives as KCNQ potassium channel modulators” (Bristol-Myers Squibb Company, priority 2001, dated 2004)
# Legend:
# mKCNQ2 channels = target: T1, mKCNQ2 channels (Mus musculus, UniProt Q9Z351); assay: Whole-cell patch-clamp, HEK 293 stable cell line expressing mKCNQ2 channels; format: cell-based; conditions: HEK 293 mKCNQ2, Hill fit; for EC50: @ −40 mV; for Emax: HEK293, read-out: Imax (%)
# T1 construct: expressed in transfected cells
# Procedure: Whole-cell patch-clamp recordings were made from an HEK 293 stable cell line expressing mKCNQ2 channels, maintained in culture for 1-2 days. Patch pipettes had initial resistances of 2.5-4 MΩ. Currents were recorded with an EPC-9 amplifier (HEKA, Lambrecht, Germany) controlled with software (Pulse, HEKA) run on a standard lab PC. Series resistance compensation was used during current recording, and set at 80%. The series resistance (R) and cell capacitance (C) were determined electronically by subtracting the capacitive currents at the onset and offset of a 5 mV voltage step. The cancellation of whole-cell capacitance transients was virtually complete in all cells. Analog current signals were low-pass filtered at 2.9 kHz using a four-pole Bessel filter −3 dB) and stored on a local network server computer at a sampling rate of […]. All recordings were performed at room temperature (20-22° C.). The pipette solution contained (mM): KCl, 150; CaCl2, 2.5; EGTA, 5; MgCl2, 1; HEPES, 10; pH to 7.3 with KOH, and Osmolality of 290-300 mOsm. The extracellular solution contained (mM): NaCl, 140; KCl, 2.5; CaCl2, 2.5; MgCl2, 1; glucose, 10; HEPES, 10; pH to 7.3 with NaOH, and Osmolality of 305-310 mOsm
# Concentration response data were generated by measuring the difference in the steady-state amplitude of current in the presence of compound at the end of a 600 ms voltage-clamp step from a holding potential of −80 mV. The concentration-response data were fitted with Hill-type equations: […]
# where I is the steady-state current at a given concentration of agonist [A]; and Imax, EC50 and nH are parameters estimated from the curve fit. In some cases the concentration-response data were fitted with equations consisting of the sum of two Hill-type components. Current-voltage (I/V) relationships for agonist-evoked currents were obtained by performing 600 ms voltage steps (−110 mV to +40 mV) in the absence and presence of agonist.
# T1 sequence (Q9Z351 whole entry): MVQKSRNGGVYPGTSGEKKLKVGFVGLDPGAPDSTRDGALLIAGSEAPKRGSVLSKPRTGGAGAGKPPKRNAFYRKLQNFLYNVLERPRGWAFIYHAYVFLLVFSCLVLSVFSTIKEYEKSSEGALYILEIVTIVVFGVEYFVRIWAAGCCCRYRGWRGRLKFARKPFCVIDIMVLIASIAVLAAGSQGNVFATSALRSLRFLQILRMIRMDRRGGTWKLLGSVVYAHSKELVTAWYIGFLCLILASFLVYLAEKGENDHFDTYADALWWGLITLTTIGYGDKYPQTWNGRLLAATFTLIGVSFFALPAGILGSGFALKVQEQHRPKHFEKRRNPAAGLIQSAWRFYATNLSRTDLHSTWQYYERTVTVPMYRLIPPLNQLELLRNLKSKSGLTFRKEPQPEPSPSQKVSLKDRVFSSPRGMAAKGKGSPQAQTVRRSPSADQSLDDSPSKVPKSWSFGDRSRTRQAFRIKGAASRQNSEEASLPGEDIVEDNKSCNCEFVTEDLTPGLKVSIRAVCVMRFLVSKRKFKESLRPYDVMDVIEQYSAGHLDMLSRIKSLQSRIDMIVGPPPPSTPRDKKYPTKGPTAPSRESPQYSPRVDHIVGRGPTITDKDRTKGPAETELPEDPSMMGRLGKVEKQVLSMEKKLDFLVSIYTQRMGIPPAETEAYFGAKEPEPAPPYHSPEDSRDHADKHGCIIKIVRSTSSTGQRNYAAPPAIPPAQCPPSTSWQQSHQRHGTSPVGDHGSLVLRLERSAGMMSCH
melting point,EC50 (mKCNQ2 channels),Emax (mKCNQ2 channels),Compound
171 to 173 °C,–,–,CC(NC(=O)/C=C/c1ccccc1F)c1ccc2c(c1)NCCC2 (racemic)
–,4.2 µM,550%,"CC(NC(=O)/C=C/c1cc(F)ccc1F)c1ccc2c(c1)OCO2 (racemic) [Example 38, (±)-N-(1-Benzo[1,3]-diox-ol-5-yl-ethyl)-3-(2,5-di-fluoro-phenyl)-acrylamide]"
–,0.0006 µM,260%,"CC(NC(=O)/C=C/c1ccccc1Cl)c1ccc2c(c1)OCO2 (racemic) [Example 46, (±)-N-(1-Benzo[1,3]-diox-ol-5-yl-ethyl)-3-(2-chlor-o-phenyl)-acrylamide]"
130 to 132 °C (dec.),–,–,"CC(NC(=O)/C=C/c1cccc(F)c1)c1ccc2c(c1)NCCC2 (racemic) [Example 232, (±)-3-(3-Fluoro-phenyl)-N-[1-(1,2,3,4-tetrahydro-quinolin-7-yl)ethyl]-acrylamide]"
144 to 146 °C,–,–,"CC(NC(=O)/C=C/c1ccccc1)c1ccc2c(c1)NCCC2 (racemic) [Example 233, (±)-3-phenyl-N-[1-(1,2,3,4-tetrahydro-quinolin-7-yl)ethyl]-acrylamide]"
139 to 141 °C,–,–,"CC(NC(=O)/C=C/c1cc(F)ccc1F)c1ccc2c(c1)NCCC2 (racemic) [Example 234, (±)-3-(2,5-difluoro-phenyl)-N-[1-(1,2,3,4-tetrahydro-quinolin-7-yl)ethyl]-acrylamide]"
125 to 127 °C (dec.),–,–,"CC(NC(=O)/C=C/c1ccc(F)cc1)c1ccc2c(c1)NCCC2 (racemic) [Example 235, (±)-3-(4-fluoro-phenyl)-N-[1-(1,2,3,4-tetrahydro-quinolin-7-yl)ethyl]-acrylamide]"
60 to 63 °C,–,–,"CC(NC(=O)/C=C/c1ccccc1F)c1ccc2c(c1)N(C)CCC2 (racemic) [Example 236, (±)-3-(2-fluoro-phenyl)-N-[1-(1-methyl-1,2,3,4-tetrahydro-quinolin-7-yl)ethyl]acrylamide]"
52 to 55 °C,–,–,"CC(NC(=O)/C=C/c1cc(F)ccc1F)c1ccc2c(c1)N(C)CCC2 (racemic) [Example 237, (±)-3-(2,5-difluoro-phenyl)-N-[1-(1-methyl-1,2,3,4-tetrahydro-quinolin-7-yl)ethyl]acrylamide]"
166 °C (dec.),–,–,"CC(NC(=O)/C=C/c1ccccc1)c1ccc2c(c1)N(C)CCC2 (racemic) [Example 238, (±)-N-[1-(1-methyl-1,2,3,4-tetrahydro-quinolin-7-yl)-ethyl]-3-phenyl-acrylamide]"
60 to 63 °C,–,–,"CC(NC(=O)/C=C/c1cccc(F)c1)c1ccc2c(c1)N(C)CCC2 (racemic) [Example 239, (±)-3-(3-fluoro-phenyl)-N-[1-(1-methyl-1,2,3,4-tetrahydro-quinolin-7-yl)ethyl]acrylamide]"
183 to 185 °C,–,–,"CC(NC(=O)/C=C/c1ccc(F)cc1)c1ccc2c(c1)N(C)CCC2 (racemic) [Example 240, (±)-3-(4-fluoro-phenyl)-N-[1-(1-methyl-1,2,3,4-tetrahydro-quinolin-7-yl)ethyl]acrylamide]"
50 to 52 °C,–,–,"CCN1CCCc2ccc(C(C)NC(=O)/C=C/c3ccccc3)cc21 (racemic) [Example 241, (±)-N-[1-(1-ethyl-1,2,3,4-tetrahydro-quinolin-7-yl)-ethyl]-3-phenyl-acrylamide]"
50 to 53 °C,1.4 µM,–,"CCN1CCCc2ccc(C(C)NC(=O)/C=C/c3cc(F)ccc3F)cc21 (racemic) [Example 242, (±)-3-(2,5-difluoro-phenyl)-N-[1-(1-ethyl-1,2,3,4-tetrahydro-quinolin-7-yl)ethyl]acrylamide]"
65 to 68 °C,–,–,"CC(=O)N1CCCc2ccc(C(C)NC(=O)/C=C/c3ccccc3)cc21 (racemic) [Example 243, (±)-N-[1-(1-acetyl-1,2,3,4-tetrahydro-quinolin-7-yl)-ethyl]-3-phenyl-acrylamide]"
–,2.9 µM,–,"C[C@H](NC(=O)/C=C/c1ccc(Cl)cc1F)c1cccc(N2CCOCC2)c1 [Example 97, (S)-3-(4-Chloro-2-fluoro-phen-yl)-N-[1-(3-morpho-lin-4-yl-phenyl)-eth-yl]-acrylamide]"
180 °C (dec.),5 µM,290%,"CC(NC(=O)/C=C/c1cc(F)cc(F)c1)c1ccc2c(c1)CCCN2 (stereo not shown) [Example 248, 3-(3,5-difluoro-phenyl)-N-[1-(1,2,3,4-tetrahydro-quinolin-6-yl)-ethyl]acrylamide]"
64 to 67 °C,–,–,"CC(NC(=O)/C=C/c1ccccc1)c1ccc2c(c1)CCCN2 (stereo not shown) [Example 249, 3-phenyl-N-[1-(1,2,3,4-tetrahydro-quinolin-6-yl)ethyl]acrylamide]"
156 °C (dec.),–,–,"CC(NC(=O)/C=C/c1ccc(F)c(F)c1)c1ccc2c(c1)CCCN2 (stereo not shown) [Example 250, 3-(3,4-difluoro-phenyl)-N-[1-(1,2,3,4-tetrahydro-quinolin-6-yl)-ethyl]acrylamide]"
149 to 151 °C (dec.),–,–,"CC(NC(=O)/C=C/c1ccccc1F)c1ccc2c(c1)CCCN2 (stereo not shown) [Example 251, 3-(2-fluoro-phenyl)-N-[1-(1,2,3,4-tetrahydro-quinolin-6-yl)ethyl]acrylamide]"
55 to 58 °C,–,–,"CC(NC(=O)/C=C/c1cc(F)ccc1F)c1ccc2c(c1)CCCN2 (stereo not shown) [Example 252, 3-(2,5-difluoro-phenyl)-N-[1-(1,2,3,4-tetrahydro-quinolin-6-yl)-ethyl]acrylamide]"
77 to 80 °C,–,–,"CC(NC(=O)/C=C/c1c(F)cccc1F)c1ccc2c(c1)CCCN2 (stereo not shown) [Example 253, 3-(2,6-difluoro-phenyl)-N-[1-(1,2,3,4-tetrahydro-quinolin-6-yl)ethyl]acrylamide]"
172 to 174 °C,–,–,"CC(NC(=O)/C=C/c1cccc(F)c1)c1ccc2c(c1)CCCN2 (stereo not shown) [Example 254, 3-(3-fluoro-phenyl)-N-[1-(1,2,3,4-tetrahydro-quinolin-6-yl)ethyl]acrylamide]"
140 to 143 °C,–,–,"CC(NC(=O)/C=C/c1ccc(F)cc1)c1ccc2c(c1)CCCN2 (stereo not shown) [Example 255, 3-(4-fluoro-phenyl)-N-[1-(1,2,3,4-tetrahydro-quinolin-6-yl)ethyl]acrylamide]"
65 to 68 °C,–,–,"CC(NC(=O)/C=C/c1ccccc1)c1ccc2c(c1)CCCN2C (stereo not shown) [Example 256, N-[1-(1-methyl-1,2,3,4-tetrahydro-quinolin-6-yl)-ethyl]-3-phenyl-acrylamide]"
51 to 55 °C,–,–,"CC(NC(=O)/C=C/c1cc(F)ccc1F)c1ccc2c(c1)CCCN2C (stereo not shown) [Example 257, 3-(2,5-difluoro-phenyl)-N-[1-(1-methyl-1,2,3,4-tetrahydro-quinolin-6-yl)ethyl]acrylamide]"

Compound,melting point,EC50 (mKCNQ2 channels),Emax (mKCNQ2 channels)
"CCN1CCOc2ccc(C(C)NC(=O)/C=C/c3ccccc3F)cc21 (single isomer, unassigned) [Example 214, 3-(2-fluoro-phenyl)-N-[1-(4-ethyl-3,4-dihydro-2H-benzo[1,4]oxazin-6-yl)ethyl]-acrylamide]",–,0.0009 µM,260%
"CC(NC(=O)/C=C/c1ccccc1F)c1ccc2c(c1)N(CC1CC1)CCO2 (single isomer, unassigned) [Example 215, 3-(2-fluoro-phenyl)-N-[1-(4-cyclopropylmethyl-3,4-dihydro-2H-benzo[1,4]oxazin-6-yl)ethyl]-acrylamide]",–,5.4 µM,–
